Laboratory results taken from patent US9624247B2, “Pyrazolo-pyrrolidin-4-one derivatives as bet inhibitors and their use in the treatment of disease” (NOVARTIS AG, priority 2013, dated 2017).

How the values were obtained:
[1] = target: CREBBP bromodomain (His-CREBBP(1081-1197)) (Homo sapiens (Human), UniProt Q92793); assay: AlphaScreen in-vitro binding assay for CREBBP; details: AlphaScreen, acetyl-histone H4 peptide; read-out: CREBBP IC50
Method: AlphaScreen In-Vitro Binding Assay for CREBBP
In order to assess bromodomain selectivity, we set up a binding assay using the bromodomain encoded by the CREBBP gene. […] Reactions were incubated at 30° C. for 35 minutes. Subsequently 4.5 μl per well detection mix (50 mM HEPES, pH 7.5, 0.005% Tween20, 0.02% BSA, 150 mM NaCl, 45 μg/ml Ni-chelate acceptor beads, 45 μg/ml streptavidin-donor beads) (Perkin Elmer)) were added. After 60 minutes incubation at room temperature, plates were measured in a Perkin Elmer EnVision multilabel reader. IC50 values were determined from percent inhibition values at different compound concentrations by non-linear regression analysis.
(§1) Preparation of Compound Dilutions
(§2) Test compounds were dissolved in DMSO (10 mM) and transferred into 1.4 mL flat bottom or V-shaped Matrix tubes carrying a unique 2D matrix. The stock solutions were stored at […] if not used immediately. For the test procedure the vials were defrosted and identified by a scanner whereby a working sheet was generated that guided the subsequent working steps. Compound dilutions were made in 96 well plates. This format enabled the assay of maximally 40 individual test compounds at 8 concentrations (single points) including 4 reference compounds, if desired (known BET inhibitors from the prior art, for this and other assays of the type disclosed herein). The dilution protocol included the production of “pre-dilution plates”, “master plates” and “assay plates”.
(§3) Pre-dilution plates: 96 polypropylene well plates were used as pre-dilution plates. A total of 4 pre-dilution plates were prepared including 10 test compounds each on the plate positions A1-A10, one standard compound at A11 and one DMSO control at A12. All dilution steps were done on a HamiltonSTAR robot.
(§4) These plates were used directly for the assay which was performed in a total volume of 13.55 μL.

BRD4 (His-Brd4(44-477)) = BRD4 (His-Brd4(44-477)) (Homo sapiens (Human), UniProt O60885); assay: TR-FRET in-vitro binding assay for BRD4; details: acetyl-histone H4 peptide
Method: (§5) TR-FRET In-Vitro Binding Assays for BRD2, BRD3, and BRD4:
(§6) All assays were performed in 384 well microtiter plates. Each assay plate contained 8-point serial dilutions for 40 test compounds, plus 16 high- and 16 low controls. Liquid handling and incubation steps were done on an Innovadyne Nanodrop Express equipped with a robotic arm (Thermo CatX, Perkin Elmer/Caliper Twister II) and an incubator (Liconic STX40, Thermo Cytomat 2C450). The assay plates were prepared by addition of 50 nl per well of compound solution in 90% DMSO HummingBird nanodispenser (Zinsser Analytic). The assay was started by stepwise addition of 4.5 μl per well of bromo domain protein (50 mM HEPES, pH 7.5, 0.005% Tween20, 0.1% BSA, 50 mM NaCl, 45 nM His-Brd2(60-472) or 45 nM His-Brd3(20-477) or 45 nM His-Brd4(44-477) all proteins produced in-house) and 4.5 μl per well of peptide solution (50 mM HEPES, pH 7.5, 0.005% Tween20, 0.1% BSA, 50 mM NaCl, 60 nM acetyl-histone H4 (AcK 5, 8, 12, 16) (Biosyntan GmbH)). Reactions were incubated at 30° C. for 35 minutes. […] After 35 minutes incubation at 30° C., plates were measured in a Perkin Elmer EnVision multilabel reader. Concentrations causing 50% inhibition (IC50 values) were determined from percent inhibition values at different compound concentrations by non-linear regression analysis.
as §1, §2, §3
(§7) Master plates: 30 μL of individual compound dilutions including standard compound and controls of the 4 “pre-dilution plates” were transferred into a 384 “master plate” including the following concentrations 10000, 3003, 1000, 300, 100, 30, 10 and 3 μM, respectively in 90% of DMSO.
(§8) Assay plates: Identical “assay plates” were then prepared by pipetting 50 nL each of compound dilutions of the “master plates” into 384-well “assay plates” by means of a HummingBird 384-channel dispenser. These plates were used directly for the assay which was performed in a total volume of 13.55 μL. This led to a final compound concentration of 37, 11, 3.7, 1.1, 0.37, 0.11, 0.037 and 0.011 μM and a final DMSO concentration of 0.37% in the assay.

THP-1 cells = assay: Cell growth inhibition assay (CellTiter-Glo), THP-1; assay type: cell-based, human; details: THP-1, 4 days; for GI50: Homo sapiens, 96 h, half-maximal growth inhibition; for THP-1 TGI: total growth inhibition
Method: (§9) Cell Growth Inhibition Assay
(§10) The human leukemia cell lines MV-4-11, THP-1 and K-562 were employed to characterize the effect of BET inhibitors on cellular proliferation and viability. Cells were obtained from the American Type Culture Collection (ATCC) and cultured at 37° C. in a humidified 5% CO2 incubator in the following media: MV-4-11: DMEM high glucose (Animed #1-26F01-I), 10% FCS (Animed #2-01F26-I), 4 mM L-Glutamine (Animed #5-10K50), 1 mM Sodium Pyruvate (Animed #G03625P), lx Penicillin-Streptomycin (Animed #F12478P); K-562: Iscove's MEM (Animed #1-28F16-I), 10% FCS (Animed #2-01F26-I), 4 mM L-Glutamine (Animed #5-10K50), 1× Penicillin-Streptomycin (Animed #F12478P); THP-1: RPMI-1640 (Animed #1-41F01-I), 10% FCS (Animed #2-01F26-I), 2 mM L-Glutamine (Animed #5-10K50), 10 mM HEPES (Animed #5-31F100), 1 mM Sodium Pyruvate (Animed #G03625P), 1× Penicillin-Streptomycin (Animed #F12478P). The AML lines MV-4-11 and THP-1 are very sensitive to BET inhibitors and show massive cell death upon BET inhibition (Zuber et al., Nature, 478 (2011), 524-8). Compound-mediated suppression of cell proliferation/viability was assessed by quantification of cellular ATP levels using the CellTiter-Glo (CTG) reagent (Promega). Briefly, cells were seeded in 20 μl fresh medium into 384-well plates, followed by addition of 5 μl medium containing compound dilutions at 5-fold their final intended concentration. Dose-response effects were assessed by 3-fold serial dilutions of the test compound, starting at 10 μM. Following incubation of the cells for 4 days at 37° C. and 5% CO2, the effect of inhibitors on cell viability was quantified following addition of 20 μl CTG and luminescence quantification (integration time: 100 ms) as per vendor manual, using a correspondingly equipped Tecan M200 multi-mode platereader (TECAN, Switzerland). For data analysis, the assay background value determined in wells containing medium, but no cells, was subtracted from all data points. To enable differentiation of cytotoxic from cytostatic compounds, the number of viable cells is assessed relative to that observed at the time of compound addition using a separate cell plate (day 0). The effect of a particular test compound concentration on cell proliferation/viability is expressed as percentage of the background- and day 0-corrected luminescence reading obtained for cells treated with vehicle only (DMSO, 0.1% final concentration), which is set as 100%, whereas that luminescence reading for wells containing medium is set as −100%. Compound concentrations leading to half-maximal (IC50) and total growth inhibition (TGI) were determined using standard four parameter curve fitting.

K-562 cells = assay: Cell growth inhibition assay (CellTiter-Glo), K-562; assay type: cell-based, human; details: K-562, 4 days; for GI50: Homo sapiens, K562, 96 h, half-maximal growth inhibition; for K-562 TGI: total growth inhibition
Method: as §9, §10

BRD2 (His-Brd2(60-472)) = BRD2 (His-Brd2(60-472)) (Homo sapiens (Human), UniProt P25440); assay: TR-FRET in-vitro binding assay for BRD2; details: acetyl-histone H4 peptide
Chain of BRD2 (His-Brd2(60-472)) (P25440 60-472): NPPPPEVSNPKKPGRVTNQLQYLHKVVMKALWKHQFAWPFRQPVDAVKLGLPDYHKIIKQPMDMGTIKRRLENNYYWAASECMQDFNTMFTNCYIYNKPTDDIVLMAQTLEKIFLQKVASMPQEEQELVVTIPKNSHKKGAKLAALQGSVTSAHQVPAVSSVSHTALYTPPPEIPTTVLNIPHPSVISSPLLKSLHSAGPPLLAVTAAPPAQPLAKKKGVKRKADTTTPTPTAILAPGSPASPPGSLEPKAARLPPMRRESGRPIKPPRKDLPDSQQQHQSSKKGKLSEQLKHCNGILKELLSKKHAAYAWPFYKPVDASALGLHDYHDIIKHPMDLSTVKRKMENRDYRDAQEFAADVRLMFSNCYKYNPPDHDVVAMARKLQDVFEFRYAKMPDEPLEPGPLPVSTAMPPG
Method: as §5, §6, §1, §2, §3, §7, §8

BRD3 (His-Brd3(20-477)) = BRD3 (His-Brd3(20-477)) (Homo sapiens (Human), UniProt Q15059); assay: TR-FRET in-vitro binding assay for BRD3; details: acetyl-histone H4 peptide
Chain of BRD3 (His-Brd3(20-477)) (Q15059 20-477): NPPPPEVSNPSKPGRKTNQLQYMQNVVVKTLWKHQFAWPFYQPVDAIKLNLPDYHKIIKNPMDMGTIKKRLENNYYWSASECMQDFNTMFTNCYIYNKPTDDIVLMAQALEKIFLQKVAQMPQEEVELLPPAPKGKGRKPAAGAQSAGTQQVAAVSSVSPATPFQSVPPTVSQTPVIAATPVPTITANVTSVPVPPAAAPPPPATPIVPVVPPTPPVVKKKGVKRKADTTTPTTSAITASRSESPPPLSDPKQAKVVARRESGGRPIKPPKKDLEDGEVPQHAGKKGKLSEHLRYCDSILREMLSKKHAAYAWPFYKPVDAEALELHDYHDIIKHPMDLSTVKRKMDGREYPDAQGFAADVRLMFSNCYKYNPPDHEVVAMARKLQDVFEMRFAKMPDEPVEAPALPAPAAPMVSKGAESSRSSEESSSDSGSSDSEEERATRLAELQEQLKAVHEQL
Method: as §5
All assays were performed in 384 well microtiter plates. Each assay plate contained 8-point serial dilutions for 40 test compounds, plus 16 high- and 16 low controls. Liquid handling and incubation steps were done on an Innovadyne Nanodrop Express equipped with a robotic arm (Thermo CatX, Perkin Elmer/Caliper Twister II) and an incubator (Liconic STX40, Thermo Cytomat 2C450). The assay plates were prepared by addition of 50 nl per well of compound solution in 90% DMSO HummingBird nanodispenser (Zinsser Analytic). […] Reactions were incubated at 30° C. for 35 minutes. […] After 35 minutes incubation at 30° C., plates were measured in a Perkin Elmer EnVision multilabel reader.
as §1, §2, §3, §4

MV-4-11 cells = assay: Cell growth inhibition assay (CellTiter-Glo), MV-4-11; assay type: cell-based, human; details: MV-4-11, 4 days; for GI50: Homo sapiens, MV4-11, 96 h, half-maximal growth inhibition; for MV-4-11 TGI: total growth inhibition
Method: as §9, §10

Chain of CREBBP bromodomain (His-CREBBP(1081-1197)) (Q92793 1081-1197): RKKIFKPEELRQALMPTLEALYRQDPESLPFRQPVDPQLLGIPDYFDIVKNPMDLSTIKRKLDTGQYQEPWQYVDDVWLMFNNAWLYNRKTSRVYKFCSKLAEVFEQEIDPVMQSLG

Row | SMILES | IC50 [1] | IC50 (BRD4 (His-Brd4(44-477))) | GI50 (THP-1 cells) | GI50 (K-562 cells) | IC50 (BRD2 (His-Brd2(60-472))) | IC50 (BRD3 (His-Brd3(20-477))) | GI50 (MV-4-11 cells) | THP-1 TGI (THP-1 cells) | K-562 TGI (K-562 cells) | MV-4-11 TGI (MV-4-11 cells)
1 | COc1ncccc1-c1n[nH]c2c1C(=O)N(c1cc(C)c3nnc(C)n3c1)[C@@H]2c1ccc(Cl)cc1 [Example 11, (R)-6-(4-chlorophenyl)-5-(3,8-dimethyl-[1,2,4]triazolo[4,3-a]pyridin-6-yl)-3-(2-methoxypyridin-3-yl)-5,6-dihydropyrrolo[3,4-c]pyrazol-4(1H)-one] | > 37000 nM | 42 nM | 28.2 nM | 98.4 nM | 46 nM | 37 nM | 9.55 nM | 42.8 nM | >10000 nM | 17.4 nM
2 | Cc1cc(N2C(=O)c3c(C4CC4)nn(C)c3[C@H]2c2ccc(Cl)cc2)cc2c1nnn2C [Example 9, (R)-6-(4-chlorophenyl)-3-cyclopropyl-5-(1,4-dimethyl-1H-benzo[d][1,2,3]triazol-6-yl)-1-methyl-5,6-dihydropyrrolo[3,4-c]pyrazol-4(1H)-one] | 3200 nM | – | 4.41 nM | 14.3 nM | – | – | 2.57 nM | 10.76 nM | >10000 nM | 5.745 nM
3 | Cc1cc(N2C(=O)c3c(C4CC4)nn(-c4ccnn4C)c3C2c2ccc(Cl)cc2)nn2c(C)nnc12 (stereo not shown) [Example 25, 6-(4-chlorophenyl)-3-cyclopropyl-5-(3,8-dimethyl-[1,2,4]triazolo[4,3-b]pyridazin-6-yl)-1-(1-methyl-1H-pyrazol-5-yl)-5,6-dihydropyrrolo[3,4-c]pyrazol-4(1H)-one] | > 37000 nM | 25 nM | 20.1 nM | 91.6 nM | 32 nM | 24 nM | 6.65 nM | 44.4 nM | >10000 nM | 15.9 nM
4 | Cc1cc(N2C(=O)c3c(C4CC4)nn(C[C@@H](O)C(F)(F)F)c3[C@H]2c2ccc(Cl)cc2)cn2c(C)nnc12 [Example 19, (R)-6-(4-chlorophenyl)-3-cyclopropyl-5-(3,8-dimethyl-[1,2,4]triazolo[4,3-a]pyridin-6-yl)-1-((R)-3,3,3-trifluoro-2-hydroxypropyl)-5,6-dihydropyrrolo[3,4-c]pyrazol-4(1H)-one] | 9400 nM | 23 nM | 14.7 nM | 58.4 nM | 29 nM | 25 nM | 5.23 nM | 36.6 nM | >10000 nM | 11.3 nM

Second part, led by results:

Row | IC50 [1] | IC50 (BRD4 (His-Brd4(44-477))) | GI50 (THP-1 cells) | GI50 (K-562 cells) | IC50 (BRD2 (His-Brd2(60-472))) | IC50 (BRD3 (His-Brd3(20-477))) | GI50 (MV-4-11 cells) | SMILES | THP-1 TGI (THP-1 cells) | K-562 TGI (K-562 cells) | MV-4-11 TGI (MV-4-11 cells)
5 | 3700 nM | 21 nM | 2.83 nM | 9.66 nM | 41 nM | 34 nM | 1.56 nM | Cc1nnc2c(N)cc(N3C(=O)c4c(C5CC5)nn(C)c4C3c3ccc(Cl)cc3)cn12 (stereo not shown) [Example 28, 5-(8-amino-3-methyl-[1,2,4]triazolo[4,3-a]pyridin-6-yl)-6-(4-chlorophenyl)-3-cyclopropyl-1-methyl-5,6-dihydropyrrolo[3,4-c]pyrazol-4(1H)-one] | 9.04 nM | >10000 nM | 3.515 nM
6 | 9800 nM | < 11 nM | 9.68 nM | 63.1 nM | 11 nM | < 11 nM | 4.28 nM | Cc1cc(N2C(=O)c3c(C4CC4)nn(C)c3[C@H]2c2ccc(Cl)cc2)cn2c(CF)nnc12 [Example 17, (R)-6-(4-chlorophenyl)-3-cyclopropyl-5-(3-(fluoromethyl)-8-methyl-[1,2,4]triazolo-[4,3-a]pyridin-6-yl)-1-methyl-5,6-dihydropyrrolo[3,4-c]pyrazol-4(1H)-one] | 24.7 nM | >10000 nM | 9.765 nM
7 | 4800 nM | – | 7.29 nM | 24.8 nM | – | – | 4.71 nM | Cc1cc(N2C(=O)c3c(C4CC4)nn(C)c3C2c2ccc(Cl)cc2)cc2c1nnn2C (racemic) [Example 8, 6-(4-chlorophenyl)-3-cyclopropyl-5-(1,4-dimethyl-1H-benzo[d][1,2,3]triazol-6-yl)-1-methyl-5,6-dihydropyrrolo[3,4-c]pyrazol-4(1H)-one] | 17.6 nM | >10000 nM | 9.53 nM
